Assay results reported in ChEMBL document CHEMBL1141684, “Synthesis and evaluation of cis-3,4-disubstituted piperidines as potent CC chemokine receptor 2 (CCR2) antagonists” (Bioorg Med Chem Lett, 2008).

What was measured:
[1] = biological target: T1, C-C chemokine receptor type 2 (Homo sapiens, UniProt P41597); assay: Displacement of radiolabeled MCP1 from CCR2 in human PBMC by millipore filter plate assay
Target sequence in this assay (P41597 whole entry): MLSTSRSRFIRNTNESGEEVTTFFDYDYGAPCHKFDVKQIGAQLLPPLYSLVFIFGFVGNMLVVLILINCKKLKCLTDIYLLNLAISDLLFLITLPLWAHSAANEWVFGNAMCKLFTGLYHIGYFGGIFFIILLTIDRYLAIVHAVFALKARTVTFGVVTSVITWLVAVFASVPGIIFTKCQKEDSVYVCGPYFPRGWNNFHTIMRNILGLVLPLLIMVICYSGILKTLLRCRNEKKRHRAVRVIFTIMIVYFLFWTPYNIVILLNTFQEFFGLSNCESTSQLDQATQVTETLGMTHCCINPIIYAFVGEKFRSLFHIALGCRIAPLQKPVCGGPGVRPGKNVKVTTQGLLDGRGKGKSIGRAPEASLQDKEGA

[2] = biological target: T2, C-C chemokine receptor type 3 (Homo sapiens) (UniProt P51677); assay: Inhibition of CCR3 at 10 uM
T2 sequence (whole entry): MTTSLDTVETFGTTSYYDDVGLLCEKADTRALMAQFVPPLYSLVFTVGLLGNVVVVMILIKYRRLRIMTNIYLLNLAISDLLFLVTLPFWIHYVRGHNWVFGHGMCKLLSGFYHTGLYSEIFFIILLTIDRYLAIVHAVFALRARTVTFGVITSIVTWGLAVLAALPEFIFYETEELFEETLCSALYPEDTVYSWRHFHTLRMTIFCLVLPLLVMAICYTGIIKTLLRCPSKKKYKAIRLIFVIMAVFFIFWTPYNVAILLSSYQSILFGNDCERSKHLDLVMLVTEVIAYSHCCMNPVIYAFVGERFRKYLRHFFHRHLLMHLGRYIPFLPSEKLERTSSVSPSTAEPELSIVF

[3] = biological target: T1, C-C chemokine receptor type 2; assay: Antagonist activity at CCR2 in human PBMC assessed as MCP1-induced calcium flux by fluorescence-imaging plate assay; type: functional
Target sequence in this assay (P41597 whole entry): as the sequence (P41597 whole entry) above

[4] = biological target: T1, C-C chemokine receptor type 2; assay: Binding affinity to wild type CCR2
Target sequence in this assay (P41597 whole entry): as the sequence (P41597 whole entry) above

[5] = biological target: C-C chemokine receptor type 2 (Homo sapiens, UniProt P41597, E291A); assay: Binding affinity to CCR2 E291A mutant
C-C chemokine receptor type 2 (Homo sapiens, UniProt P41597, E291A), sequence (P41597 whole entry E291A): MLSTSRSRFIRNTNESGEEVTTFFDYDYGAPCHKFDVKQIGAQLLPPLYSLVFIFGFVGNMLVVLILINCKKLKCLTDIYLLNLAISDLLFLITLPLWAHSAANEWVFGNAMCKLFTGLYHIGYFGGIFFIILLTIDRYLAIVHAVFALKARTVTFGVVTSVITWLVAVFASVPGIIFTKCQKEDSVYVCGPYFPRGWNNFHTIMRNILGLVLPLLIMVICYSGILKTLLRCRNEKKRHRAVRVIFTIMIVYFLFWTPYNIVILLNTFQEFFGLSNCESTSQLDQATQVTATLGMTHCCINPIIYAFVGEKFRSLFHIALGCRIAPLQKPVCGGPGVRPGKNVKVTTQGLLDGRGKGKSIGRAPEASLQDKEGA

[6] = biological target: T1, C-C chemokine receptor type 2; assay: Displacement of radiolabeled MCP1 from CCR2 in human PBMC at 1 uM by millipore filter plate assay
Target sequence in this assay (P41597 whole entry, looked up): as the sequence (P41597 whole entry) above

SMILES	IC50 [1] [nM]	inhibition [2] [%]	IC50 [3] [nM]	IC50 [4] [nM]	IC50 [5] [nM]	Activity [6] [%]
CCCN1CCC(NCc2ccc(SC)cc2)C(NC(=O)CNC(=O)c2cc(C(F)(F)F)ccc2NC(=O)N2CCCC2)C1 (racemic)	8.7	38.2	21			
CSc1ccc(C(=O)NC2CCNCC2NC(=O)CNC(=O)c2cc(C(F)(F)F)ccc2N)cc1 (racemic)	28	19.7	75	12	381	
CCSc1ccc(CNC2CCNCC2NC(=O)CNC(=O)c2cc(C(F)(F)F)ccc2N)cc1 (racemic)	123					
CSc1ccc(CNC2CCNCC2NC(=O)CNC(=O)c2cccc(C(F)(F)F)c2)cc1 (racemic)	97	46	510			
CSc1ccc(CNC2CCN(C)CC2NC(=O)CNC(=O)c2cc(C(F)(F)F)ccc2N)cc1 (racemic)	0.95	56	5			
CSc1ccc(C(=O)NC2CCN(C)CC2NC(=O)CNC(=O)c2cc(C(F)(F)F)ccc2N)cc1 (racemic)	1.8	43.1	2			
CCCN1CCC(NC(=O)c2ccc(SC)cc2)C(NC(=O)CNC(=O)c2cc(N)cc(C(F)(F)F)c2)C1 (racemic)	6.2		6			
CCCN1CCC(NCc2ccc(SC)cc2)C(NC(=O)CNC(=O)c2cc(N)cc(C(F)(F)F)c2)C1 (racemic)	6.1	49.3	3			
CSc1ccc(CNC2CCCCC2NC(=O)CNC(=O)c2cc(C(F)(F)F)ccc2N)cc1 (racemic)	1180					
CSc1ccc(CNC2CCNCC2NC(=O)CNC(=O)c2cc(C(F)(F)F)ccc2N)cc1 (racemic)	6.3	47.3	7	6.1	749	
Nc1ccc(C(F)(F)F)cc1C(=O)NCC(=O)NC1CNCCC1NCc1ccc(Cl)cc1 (racemic)	21.5	90	19			
CCCN1CCC(NCc2ccc(SC)cc2)C(NC(=O)CNC(=O)c2cc(C(F)(F)F)ccc2N)C1 (racemic)	3.4	47	2			
CCCN1CCC(NCc2ccc(SC)cc2)C(NC(=O)CNC(=O)c2cc(C(F)(F)F)ccc2NC(=O)NC)C1 (racemic)	3.8	5.5	3			
CSc1ccc(CNC2CCN(C(C)=O)CC2NC(=O)CNC(=O)c2cccc(C(F)(F)F)c2)cc1 (racemic)	463					
CCCCN1CCC(NCc2ccc(SC)cc2)C(NC(=O)CNC(=O)c2cc(C(F)(F)F)ccc2N)C1 (racemic)	7.9	75	13			
CCCCN1CCC(NC(=O)c2ccc(SC)cc2)C(NC(=O)CNC(=O)c2cc(C(F)(F)F)ccc2N)C1 (racemic)	4.3	77	13			
CSc1ccc(C(=O)NC2CCN(C(=O)OC(C)(C)C)CC2NC(=O)CNC(=O)c2cc(C(F)(F)F)ccc2NC(=O)OC(C)(C)C)cc1 (racemic)						0
CSc1ccc(CNC2CCN(C(=O)OC(C)(C)C)CC2NC(=O)CNC(=O)c2cccc(C(F)(F)F)c2)cc1 (racemic)						0
